Test results published in patent US20100249019A1, “USE OF A PEPTIDE AS A THERAPEUTIC AGENT” (priority 2007, published 2010).
No end group written: not given here.

Tests used:
HCMV strain AD169 = assay: HCMV plaque formation assay in MRC-5 cells; details: 10 micrograms per ml, 7-10 days
HUVEC = assay: Endothelial tube formation assay; type: cell-based, human; details: 10 micrograms per ml; 20 hours
Description: The endothelial tube formation assay is based on the ability of endothelial cells to form three-dimensional capillary-like tubular structures when cultured on a gel of basement membrane extract. The endothelial tube formation assay represents a powerful model for studying inhibition and induction of angiogenesis. Pre-labeled HUVEC with Calcein AM were seeded in a 96-well culture plate coated with extracellular metrix (Chemicon international Cat. ECM625) and treated with test peptides—10 micrograms per ml—in full growth medium. Positive control wes vehicle only. The endothelial cells were allowed to form tubes foe 20 hours and were then examined under an inverted fluorescent microscope. Duplicate wells for each treatment were photographed and quantitatevily analyzed for an average tubule length using image analysis software ImageProPlus. Raw data were expressed as average tubule lengths in pixels±standard deviation. Statistic p values were computed using the Student's t-test.

RAW 264.7 cells = assay: Phagocytosis assay (Fluorescein-labeled Escherichia coli, flow cytometry); details: 10 micrograms per ml; 30 min preincubation, 60 min ingestion
murine spleen cells = assay: Th1/Th2 cytokine profiling assay (Ovalbumin-restimulated spleen cells, CBA kit); type: cell-based, Balb/c mice; details: 10 micrograms per ml; 72 hours
Excerpt: The Balb/c mice (originated in 1923, it is a popular strain and is used in many different research disciplines. Also classified as an inbred from the production of 20 or more successive brother-sister matings, the Balb/c mouse is albino and small in size) were immunized on Days 1, 15, and 29 with Ovalbumin (Ovalbumin is the main protein found in egg white, commonly used to stimulate an immunological reaction in test animals) in PBS (5 micrograms/injection). On day 50, spleens of the mice were harvested (3 weeks after last boost with Ovalbumin). […] Thereafter, additional Ovalbumin was added to the cells at 10 micrograms/ml for in vitro restimulation of the cells. 72 hours later, cell supernatants were harvested and assayed using the Becton Dickinson Mouse Th1/Th2 Cytokine CBA Kit.

[1] = system: hepatitis B virus (HBV) ayw strain; assay: HBV experimental assay system (HepG2-2.2.15, TaqMan PCR of HBV DNA); type: cell-based; details: 10 micrograms per ml; six days; HBV DNA vs virus control
[2] = system: Primary Human endothelial cells (HUVEC); assay: Endothelial cell migration assay; type: cell-based; details: 10 micrograms per ml; 22 hours

## Val-Pro-Leu-Pro-Ala-Gly-Gly-Gly-Thr-Val-Leu-Thr-Lys-Met-Tyr-Pro-Arg-Gly-Asn-His-Trp-Ala-Val-Gly-His-Leu-Met-NH2 (VPLPAGGGTVLTKMYPRGNHWAVGHLM-NH2) [Peptide 2, Gastrin Releasing Peptide; GRP, commercially available known peptide]
HCMV strain AD169
  inhibition of HCMV plaque formation as compared to the virus control: 4.0%
HUVEC
  inhibition of the tube formation of human endothelial cells: do not inhibit
RAW 264.7 cells
  induction of phagocytosis as compared to control: 42.9%
Murine spleen cells
  change of the production of IFN-γ: did not significantly change
  change of the production of IL-2: did not significantly change
  change of the production of IL-4: did not significantly change
  change of the production of TNF-alpha: did not significantly change
  decrease of the production of IL-5: 34.0%
  induction of the production of IL-2: 67.3%
[1]
  inhibition of HBV replication on tested liver cells: 30.6%
[2]
  inhibition of the migration of human endothelial cells: 26%
